In one experiment the test system is mice. In words: Formalin test carried out on mice (FTm). It is filed as in vivo. The note with it: 1 po, percentage change relative to control. On the procedure: In the formalin test, the testing to determine the antinociceptive effect of the compounds according to the invention is carried out on male mice (NMRI, 20 to 30 g body weight, Iffa, Credo, Belgium).
In the formalin test as described by D. Dubuisson et al., Pain 1977, 4, 161-174, a distinction is drawn between the first (early) phase (0 to 15 minutes after the injection of formalin) and the second (late) phase (15 to 60 minutes after the injection of formalin). The early phase, as an immediate reaction to the injection of formalin, is a model of acute pain, whereas the late phase is regarded as a model of persistent (chronic) pain (T. J. Coderre et al., Pain 1993, 52, 259-285). The corresponding descriptions in the literature are introduced herewith by way of reference and form part of the disclosure.
The compounds according to the invention are tested in the second phase of the formalin test to obtain information about the effects of substances on chronic/inflammatory pain. […]
Subsequently, the nociceptive behaviour is continuously detected by observing the animals over a test period of three minutes in the second (late) phase of the formalin test (21 to 24 minutes after the injection of formalin). The pain behaviour is quantified by adding up the seconds over which the animals display licking and biting of the paw in question during the test period. […]

For another experiment, the target named is hVR1 (Homo sapiens (Human), UniProt Q8NER1). In words: FLIPR assay human VR1, 45° C. stimulus. It is filed as cell-based. The settings on record: inhibition determined at 2.5 μM, read-out: IC50 (human being) 45° C. column: inhibition (as a percentage) @ 2.5 μM. The source says:
The agonistic or antagonistic effect of the substances to be tested on the vanilloid receptor 1 (VR1) can also be determined using the following assay. In this assay, the influx of Ca^2+ through the channel is quantified with the aid of a Ca^2+-sensitive dye (type Fluo-4, Molecular Probes Europe BV, Leiden, the Netherlands) in a fluorescent imaging plate reader (FLIPR, Molecular Devices, Sunnyvale, USA).
Chinese hamster ovary cells (CHO K1 cells, European Collection of Cell Cultures (ECACC) United Kingdom) are stably transfected with the VR1 gene. For functional testing, these cells are plated out on poly-D-lysine-coated black 96-well plates having a clear base (BD Biosciences, Heidelberg, Germany) at a density of 25,000 cells/well. The cells are incubated overnight at 37° C. and 5% CO2 in a culture medium (Ham's F12 nutrient mixture, 10% by volume of FCS (foetal calf serum), 18 μg/ml of L-proline). The next day the cells are incubated with Fluo-4 (Fluo-4 2 μM, 0.01% by volume of Pluronic F127, Molecular Probes in HBSS (Hank's buffered saline solution), Gibco Invitrogen GmbH, Karlsruhe, Germany) for 30 minutes at 37° C. Subsequently, the plates are washed three times with HBSS buffer and after further incubation for 15 minutes at RT used for Ca^2+ measurement in a FLIPR assay. The Ca^2+-dependent fluorescence is measured before and after the addition of the substances to be tested (λex wavelength=488 nm, λem=540 nm). Quantification is carried out by measuring the highest fluorescence intensity (FC, fluorescence counts) over time.
The FLIPR protocol consists of 2 substance additions. […]
Desensitising agonists and antagonists led to suppression of the Ca^2+ influx.
Ki values for the test substances were obtained by conversion by means of the Cheng-Prusoff equation (Cheng, Prusoff; Biochem. Pharmacol. 22, 3099-3108, 1973).

Sequence of hVR1 (Q8NER1 whole entry): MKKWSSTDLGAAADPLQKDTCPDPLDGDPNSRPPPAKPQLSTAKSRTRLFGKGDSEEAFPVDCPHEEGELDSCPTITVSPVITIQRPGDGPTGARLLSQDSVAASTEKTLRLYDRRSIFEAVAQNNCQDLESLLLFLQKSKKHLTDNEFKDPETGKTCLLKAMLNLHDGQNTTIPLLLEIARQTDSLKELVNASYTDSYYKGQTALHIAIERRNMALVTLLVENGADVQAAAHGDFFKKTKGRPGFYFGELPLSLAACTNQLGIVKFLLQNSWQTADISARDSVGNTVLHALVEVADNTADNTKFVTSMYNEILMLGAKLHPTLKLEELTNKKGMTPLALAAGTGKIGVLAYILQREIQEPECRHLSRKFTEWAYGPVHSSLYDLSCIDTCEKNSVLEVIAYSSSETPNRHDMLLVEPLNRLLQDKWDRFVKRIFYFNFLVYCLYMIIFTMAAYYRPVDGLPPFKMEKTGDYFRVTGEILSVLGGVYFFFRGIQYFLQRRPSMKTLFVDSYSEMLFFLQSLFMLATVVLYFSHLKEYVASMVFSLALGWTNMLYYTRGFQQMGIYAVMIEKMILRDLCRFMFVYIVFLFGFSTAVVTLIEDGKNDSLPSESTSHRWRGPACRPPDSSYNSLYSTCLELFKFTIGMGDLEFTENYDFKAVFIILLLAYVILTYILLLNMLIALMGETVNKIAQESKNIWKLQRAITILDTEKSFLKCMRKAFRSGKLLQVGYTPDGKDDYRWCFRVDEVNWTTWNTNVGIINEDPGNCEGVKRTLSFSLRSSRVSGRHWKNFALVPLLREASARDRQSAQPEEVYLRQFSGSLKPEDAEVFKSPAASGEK

For `O=C(Cc1cccc(F)c1)NCc1cc(C(F)(F)F)nn1-c1cccc(Cl)c1` [Example 74, N-((1-(3-chlorophenyl)-3-(trifluoromethyl)-1H-pyrazol-5-yl)methyl)-2-(3-fluorophenyl)acetamide], in the experiment on mice, the FTm came to 13%. Moreover, the inhibition (as a rule, the drop in the measured response relative to a control, in per cent) at 2.5 µM at hVR1 stood at 12%.
